Assay results: patent publication US20240409585A1, “MACROCYCLIC IMMUNOMODULATORS” (priority 2021, published 2024)
Where two headings read alike, the source gives them in different places. Numbered stars: 1 amine (or outer) side, 2 acyl side, 3 side chain; on linkers, the order of the positions; unused ones are H or OH. Bridge positions count the residues as written; N and C are the ends. Square brackets hold non-standard residues; d marks the D form. Peptide text beside a SMILES is read from it. * marks the point of attachment. Bip(4'-COOH) = N[C@@H](Cc1ccc(-c2ccc(C(=O)O)cc2)cc1)C(=O)O; Phe(4-CH2CH2COOH) = N[C@@H](Cc1ccc(CCC(=O)O)cc1)C(=O)O; Phe(3-CF3) = N[C@@H](Cc1cccc(C(F)(F)F)c1)C(=O)O; Ala(morpholin-4-yl) = N[C@@H](CN1CCOCC1)C(=O)O; Phe(4-CONH2) = NC(=O)c1ccc(C[C@H](N)C(=O)O)cc1; Phe(4-COOH) = N[C@@H](Cc1ccc(C(=O)O)cc1)C(=O)O; Bip = N[C@@H](Cc1ccc(-c2ccccc2)cc1)C(=O)O; Phe(4-Cl) = N[C@@H](Cc1ccc(Cl)cc1)C(=O)O; Abu(3R-NH2) = C[C@@H](N)[C@H](N)C(=O)O; Phe(3-Me) = Cc1cccc(C[C@H](N)C(=O)O)c1; Abu(3S-NH2) = C[C@H](N)[C@H](N)C(=O)O; Dap(CONH2) = NC(=O)NC[C@H](N)C(=O)O; Glutaryl = O=C(CCCC(=O)[*:2])[*:1]; Val(3-OH) = CC(C)(O)[C@H](N)C(=O)O; Ala(cPr) = N[C@@H](CC1CC1)C(=O)O; hCha = N[C@@H](CCC1CCCCC1)C(=O)O; hPhe = N[C@@H](CCc1ccccc1)C(=O)O; 3Pal = N[C@@H](Cc1cccnc1)C(=O)O; Cha = N[C@@H](CC1CCCCC1)C(=O)O; Carboxymethyl = O=C(O)C*; NMeA = CN[C@@H](C)C(=O)O; Orn = NCCC[C@H](N)C(=O)O; Dab = NCC[C@H](N)C(=O)O; Dap = NC[C@H](N)C(=O)O

What was measured:
[1] = molecular target: T1, Alexa fluor-647 labeled human PD-L1-Ig binding to Jurkat cell line over-expressing human PD-1 (Homo sapiens, UniProt Q15116); assay: Jurkat-PD-1 Cell Binding High-Content Screening Assay (CBA): Method 3 (Alexa fluor-647 labeled PD-L1-Ig); settings: Jurkat-PD-1 cells, Alexa fluor-647 labeled PD-L1-Ig 177 nM
T1 construct: expressed in transfected cells; host or cells: Jurkat
How it was run: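 Readout by high-content imaging of PFA-fixed, Hoechst-stained cells after 1 h with 177 nM (final) Alexa fluor-647 PD-L1-Ig. Compound was added first to hPD-1 Jurkat cells in RPMI plus 10% FCS for 2 h at 37 °C.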

[2] = molecular target: T2, PD1-PDL1 protein-protein binding interaction [hPD1(25-167)-hIgG, hPD-L1 (19-239)-6xHis] (Homo sapiens, UniProt Q15116); assay: HTRF Assay (TR-FRET); settings: 5 nM hPD1-hIgG, 5 nM hPD-L1-6xHis, 24 hours at 25° C., head μM
T2 construct: hPD1(25-167)-hIgG, BMS
Procedure: A time-resolved fluorescence resonance energy transfer (TR-FRET) assay was employed to measure the inhibition of the PD1-PDL1 protein-protein binding interaction. The reaction buffer was prepared by mixing the HiBlock buffer and LANCE detection buffer (PerkinElmer, TRF1011F and CR97-100) at a 1:1 ratio. Assay reactions contained 5 nM human programmed cell death 1 [hPD1(25-167)-hIgG, BMS], 5 nM human programmed cell death ligand 1 [hPD-L1 (19-239)-6×His, BMS], in the presence of 1 nM LANCE Eu-W1024 Anti-Human IgG (Eu-anti hIgG, PerkinElmer, AD0074) and 20 nM SureLight Allophycocyanin-anti-6×His antibody (APC-anti-6×His, PerkinElmer, AD0059H). Test compounds were evaluated in a 10-point dose-response format with serial three-fold dilutions starting from a 2 uM top concentration. Reactions were carried out in a total volume of 10 uL in 384-well microtiter plates (Proxiplate white, PerkinElmer, 6008289). Plates were sealed and incubated for 24 hours at 25° C. After 24 hours, the TR-FRET signal was measured using a PerkinElmer EnVision multimode plate reader and the resulting ratiometric data set (signal at 665 nm/615 nm, multiplied by a factor of 10,000) was recorded. The concentration giving half-maximal inhibition (the IC50) was obtained by fitting the data to a four-parameter logistic equation using Graphpad Prism or Dotmatics.

T2 sequence (Q15116 25-167): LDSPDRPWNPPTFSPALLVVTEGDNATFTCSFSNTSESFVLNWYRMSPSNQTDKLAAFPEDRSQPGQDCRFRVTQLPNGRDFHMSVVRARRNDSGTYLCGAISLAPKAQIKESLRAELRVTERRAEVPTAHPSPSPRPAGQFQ
T1 sequence (Q15116 25-288): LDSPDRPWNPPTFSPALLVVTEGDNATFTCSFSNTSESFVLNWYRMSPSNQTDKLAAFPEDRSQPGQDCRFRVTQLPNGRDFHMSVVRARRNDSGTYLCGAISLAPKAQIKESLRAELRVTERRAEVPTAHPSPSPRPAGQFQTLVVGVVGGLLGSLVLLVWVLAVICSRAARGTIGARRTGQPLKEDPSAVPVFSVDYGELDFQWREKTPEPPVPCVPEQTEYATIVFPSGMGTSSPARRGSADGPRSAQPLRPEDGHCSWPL

| SMILES | IC50 ([1]; nM, read-out: CBA Method 3) [nM] | IC50 [2] [µM] | IC50 ([1]; head μM, read-out: CBA Method 3 μM) [nM] |
| --- | --- | --- | --- |
| CC(C)C[C@H]1NC(=O)[C@H](C)N(C)C(=O)[C@H](Cc2ccc(C(=O)O)cc2)NC(=O)[C@H](Cc2ccc(-c3ccccc3)cc2)NC(=O)[C@H](Cc2ccc(C(=O)O)cc2)NC(=O)[C@H](Cc2cccc(C(F)(F)F)c2)NC(=O)[C@H](CC(=O)O)NC(=O)[C@H](Cc2ccc(C(=O)O)cc2)NC(=O)[C@H](CC2CCCCC2)NC(=O)CSC[C@@H](C(=O)N[C@@H](CCN)C(N)=O)NC(=O)[C@H](CNC(=O)CCCC(=O)O)NC(=O)[C@H](C(C)C)NC(=O)[C@H](CC2CCCCC2)NC(=O)[C@H](CCN)NC1=O [Example 5229] ({CH2CO}-[Cha][Phe(4-COOH)]D[Phe(3-CF3)][Phe(4-COOH)][Bip][Phe(4-COOH)][NMeA][dL][Dab][Cha]V[Dap](Glutaryl)C[Dab]-NH2; thioether N-14) | 3.8 | 0.04 | – |
| CC(C)C[C@H]1NC(=O)[C@H](C)N(C)C(=O)[C@H](CCC(N)=O)NC(=O)[C@H](Cc2ccc(-c3ccccc3)cc2)NC(=O)[C@H](CCc2ccccc2)NC(=O)[C@H](Cc2cccc(C(F)(F)F)c2)NC(=O)[C@H](CC(=O)O)NC(=O)[C@H](Cc2cccnc2)NC(=O)[C@H]([C@@H](C)N)NC(=O)CSC[C@@H](C(=O)N[C@@H](CCN)C(N)=O)NC(=O)[C@H](CCCN)NC(=O)[C@H](C(C)C)NC(=O)[C@H](CC2CCCCC2)NC(=O)[C@H](CCN)NC1=O [Example 5244] ({CH2CO}-[Abu(3R-NH2)][3Pal]D[Phe(3-CF3)][hPhe][Bip]Q[NMeA][dL][Dab][Cha]V[Orn]C[Dab]-NH2; thioether N-14) | 6.4 | 0.03 | – |
| Cc1cccc(C[C@@H]2NC(=O)[C@H](CC(=O)O)NC(=O)[C@H](Cc3ccc(CCC(=O)O)cc3)NC(=O)[C@H](CNC(N)=O)NC(=O)CSC[C@@H](C(=O)N[C@@H](CCN)C(N)=O)NC(=O)[C@H](CCCN)NC(=O)[C@H](C(C)C)NC(=O)[C@H](CC3CCCCC3)NC(=O)[C@H](CCN)NC(=O)[C@@H](CC(C)C)NC(=O)[C@H](C)N(C)C(=O)[C@H](CCC(N)=O)NC(=O)[C@H](Cc3ccc(-c4ccccc4)cc3)NC(=O)[C@H](Cc3ccc(C(=O)O)cc3)NC2=O)c1 [Example 5298] ({CH2CO}-[Dap(CONH2)][Phe(4-CH2CH2COOH)]D[Phe(3-Me)][Phe(4-COOH)][Bip]Q[NMeA][dL][Dab][Cha]V[Orn]C[Dab]-NH2; thioether N-14) | 0.5 | 0.01 | – |
| Cc1cccc(C[C@@H]2NC(=O)[C@H](CC(=O)O)NC(=O)[C@H](Cc3ccc(OCC(=O)O)cc3)NC(=O)[C@H](Cc3ccc(-c4ccc(C(=O)O)cc4)cc3)NC(=O)CSC[C@@H](C(=O)N[C@@H](CCN)C(N)=O)NC(=O)[C@H](CCCN)NC(=O)[C@H](C(C)C)NC(=O)[C@H](CC3CCCCC3)NC(=O)[C@H](CCN)NC(=O)[C@@H](CC(C)C)NC(=O)[C@H](C)N(C)C(=O)[C@H](CCC(N)=O)NC(=O)[C@H](Cc3ccc(-c4ccccc4)cc3)NC(=O)[C@H](Cc3ccc(C(=O)O)cc3)NC2=O)c1 [Example 5177] ({CH2CO}-[Bip(4'-COOH)]Y(Carboxymethyl)D[Phe(3-Me)][Phe(4-COOH)][Bip]Q[NMeA][dL][Dab][Cha]V[Orn]C[Dab]-NH2; thioether N-14) | 7.6 | 0.03 | – |
| CC(C)C[C@H]1NC(=O)[C@H](C)N(C)C(=O)[C@H](Cc2ccc(C(N)=O)cc2)NC(=O)[C@H](Cc2ccc(-c3ccccc3)cc2)NC(=O)[C@H](CCc2ccccc2)NC(=O)[C@H](Cc2cccc(C(F)(F)F)c2)NC(=O)[C@H](CC(=O)O)NC(=O)[C@H](Cc2ccc(C(=O)O)cc2)NC(=O)[C@H]([C@H](C)N)NC(=O)CSC[C@@H](C(=O)N[C@@H](CCN)C(N)=O)NC(=O)[C@H](CCC(N)=O)NC(=O)[C@H](C(C)(C)O)NC(=O)[C@H](CC2CCCCC2)NC(=O)[C@H](CCN)NC1=O [Example 5206] ({CH2CO}-[Abu(3S-NH2)][Phe(4-COOH)]D[Phe(3-CF3)][hPhe][Bip][Phe(4-CONH2)][NMeA][dL][Dab][Cha][Val(3-OH)]QC[Dab]-NH2; thioether N-14) | – | 0.05 | 10 |
| Cc1cccc(C[C@@H]2NC(=O)[C@H](CC(=O)O)NC(=O)[C@H](Cc3ccc(OCC(=O)O)cc3)NC(=O)[C@H](Cc3ccc(Cl)cc3)NC(=O)CSC[C@@H](C(=O)N[C@@H](CCN)C(N)=O)NC(=O)[C@H](CCCN)NC(=O)[C@H](C(C)C)NC(=O)[C@H](CC3CCCCC3)NC(=O)[C@H](CCN)NC(=O)[C@@H](CC(C)C)NC(=O)[C@H](C)N(C)C(=O)[C@H](CCC(N)=O)NC(=O)[C@H](Cc3ccc(-c4ccccc4)cc3)NC(=O)[C@H](Cc3ccc(C(=O)O)cc3)NC2=O)c1 [Example 5288] ({CH2CO}-[Phe(4-Cl)]Y(Carboxymethyl)D[Phe(3-Me)][Phe(4-COOH)][Bip]Q[NMeA][dL][Dab][Cha]V[Orn]C[Dab]-NH2; thioether N-14) | 1 | 0.08 | – |
| Cc1cccc(C[C@@H]2NC(=O)[C@H](CC(=O)O)NC(=O)[C@H](Cc3ccc(OCC(=O)O)cc3)NC(=O)[C@H](CC3CC3)NC(=O)CSC[C@@H](C(=O)N[C@@H](CCN)C(N)=O)NC(=O)[C@H](CCCN)NC(=O)[C@H](C(C)C)NC(=O)[C@H](CC3CCCCC3)NC(=O)[C@H](CCN)NC(=O)[C@@H](CC(C)C)NC(=O)[C@H](C)N(C)C(=O)[C@H](CCC(N)=O)NC(=O)[C@H](Cc3ccc(-c4ccccc4)cc3)NC(=O)[C@H](Cc3ccc(C(=O)O)cc3)NC2=O)c1 [Example 5185] ({CH2CO}-[Ala(cPr)]Y(Carboxymethyl)D[Phe(3-Me)][Phe(4-COOH)][Bip]Q[NMeA][dL][Dab][Cha]V[Orn]C[Dab]-NH2; thioether N-14) | 2.3 | 0.01 | – |
| Cc1cccc(C[C@@H]2NC(=O)[C@H](CC(=O)O)NC(=O)[C@H](Cc3ccc(OCC(=O)O)cc3)NC(=O)[C@H](CCC3CCCCC3)NC(=O)CSC[C@@H](C(=O)N[C@@H](CCN)C(N)=O)NC(=O)[C@H](CCCN)NC(=O)[C@H](C(C)C)NC(=O)[C@H](CC3CCCCC3)NC(=O)[C@H](CCN)NC(=O)[C@@H](CC(C)C)NC(=O)[C@H](C)N(C)C(=O)[C@H](CCC(N)=O)NC(=O)[C@H](Cc3ccc(-c4ccccc4)cc3)NC(=O)[C@H](Cc3ccc(C(=O)O)cc3)NC2=O)c1 [Example 5186] ({CH2CO}-[hCha]Y(Carboxymethyl)D[Phe(3-Me)][Phe(4-COOH)][Bip]Q[NMeA][dL][Dab][Cha]V[Orn]C[Dab]-NH2; thioether N-14) | 4.5 | 0.03 | – |
| Cc1cccc(C[C@@H]2NC(=O)[C@H](CC(=O)O)NC(=O)[C@H](Cc3ccc(OCC(=O)O)cc3)NC(=O)[C@H](CN3CCOCC3)NC(=O)CSC[C@@H](C(=O)N[C@@H](CCN)C(N)=O)NC(=O)[C@H](CCC(=O)O)NC(=O)[C@H](C(C)C)NC(=O)[C@H](CC3CCCCC3)NC(=O)[C@H](CCN)NC(=O)[C@@H](CC(C)C)NC(=O)[C@H](C)N(C)C(=O)[C@H](CCC(N)=O)NC(=O)[C@H](Cc3ccc(-c4ccccc4)cc3)NC(=O)[C@H](CCc3ccccc3)NC2=O)c1 [Example 5212] ({CH2CO}-[Ala(morpholin-4-yl)]Y(Carboxymethyl)D[Phe(3-Me)][hPhe][Bip]Q[NMeA][dL][Dab][Cha]VEC[Dab]-NH2; thioether N-14) | 3.9 | 0.02 | – |
